The test concerns 3T3-L1 pre-adipocytes. The test is described as follows: Glucose uptake (2-deoxy glucose uptake) by 3T3-L1 pre-adipocytes. Type of test: cell-based. Particulars: for activation at 5 µM: Mus musculus, read-out: Percent increase in glucose uptake in comparison to DMSO treated Control. The method, then:
Glucose uptake by 3T3-L1 cells exposed to compounds 1-11 was determined at 5 μM concentration. Cells were exposed to compounds 1-11 for 24 hours and exposure to DMSO was used as the control group. 2-Deoxy glucose (2-DG) uptake was determined using the analog compounds without serum starving the cells prior to determining glucose uptake. Glucose uptake in 3T3-L1 pre-adipocytes was determined by exposing cells to compounds 1-11 for 24 hours without serum starvation. P values presented in the Table indicate statistical significance (p<0.05).

Where [1] appears, read: 5 μM compound, 24 hours exposure, 3T3-L1 pre-adipocytes, basal conditions, without serum starvation, 2-DG uptake.

Where two headings read alike, the source gives them in different places.

Take `N#CC(Nc1ccc(O)cc1)c1ccc([B-](F)(F)F)cc1` (centres unmarked) [Example 10, Potassium (4-(cyano((4-hydroxyphenyl)amino)methyl)phenyl)trifluoroborate]: where the note is “3T3-L1, 24 h”, the activation at 5 µM turned out to be 31%. In the case of `CC1(C)OB(c2ccc(NC(C#N)c3ccc(B4OC(C)(C)C(C)(C)O4)cc3)cc2)OC1(C)C` (centres unmarked) [Example 6, 2-(4-(4,4,5,5-tetramethyl-1,3,2-dioxaborolan-2-yl)phenyl)-2-((4-(4,4,5,5-tetramethyl-1,3,2-dioxaborolan-2-yl)phenyl)amino)acetonitrile], the activation at 5 µM under setting [1] is 17%. As for `COc1cc(C(C#N)Nc2ccc([B-](F)(F)F)cc2)cc(OC)c1OC.[K+]` (centres unmarked) [Example 8, Potassium (4-((cyano(3,4,5-trimethoxyphenyl)methyl)amino)phenyl) trifluoroborate], the “Percent increase in glucose uptake in comparison to DMSO treated Control” value (“Percent increase in glucose uptake” for short) under setting [1] is 43%.

Consider `N#CC(Nc1ccc([B-](F)(F)F)cc1)c1ccc(O)cc1.[K+]` (centres unmarked) [Example 2, Potassium (4-((cyano(4-hydroxyphenyl)methyl)amino)phenyl)trifluoroborate], for which the “Percent increase in glucose uptake” value under setting [1] is “No increase”. On to `N#CC(Nc1ccc([B-](F)(F)F)cc1)c1cccnc1` (centres unmarked) [Example 9, Potassium (4-((cyano(pyridin-3-yl)methyl)amino)phenyl)trifluoroborate], for which the activation at 5 µM (3T3-L1, 24 h) was 54%. For the molecule `CC1(C)OB(c2ccc(NC(C#N)c3ccc(O)cc3)cc2)OC1(C)C` (centres unmarked) [Example 1, 2-(4-hydroxyphenyl)-2-((4-(4,4,5,5-tetramethyl-1,3,2-dioxaborolan-2-yl)phenyl)amino)acetonitrile], the activation at 5 µM under setting [1] worked out at 24%. Same read-out and setting: the same measure for `CC1=C(C(C#N)Nc2ccc(B3OC(C)(C)C(C)(C)O3)cc2)C(C)(C)CCC1` (centres unmarked) [Example 4, 2-((4-(4,4,5,5-tetramethyl-1,3,2-dioxaborolan-2-yl)phenyl)amino)-2-(2,6,6-trimethylcyclohex-1-en-1-yl)acetonitrile]: 33%. `CC1(C)OB(c2ccc(C(C#N)Nc3ccc(O)cc3)cc2)OC1(C)C` (centres unmarked) [Example 5, 2-((4-hydroxyphenyl)amino)-2-(4-(4,4,5,5-tetramethyl-1,3,2-dioxaborolan-2-yl)phenyl)acetonitrile]: under setting [1], the activation at 5 µM came out at 73%. For `COc1cc(C(C#N)Nc2ccc(B3OC(C)(C)C(C)(C)O3)cc2)cc(OC)c1OC` (centres unmarked) [Example 7, 2-((4-(4,4,5,5-tetramethyl-1,3,2-dioxaborolan-2-yl)phenyl)amino)-2-(3,4,5-trimethoxyphenyl)acetonitrile], the activation at 5 µM under setting [1] turned out to be 41%.

`CC1(C)OB(c2ccc(NC(C#N)c3cccnc3)cc2)OC1(C)C` (centres unmarked) [Example 3, 2-(pyridin-3-yl)-2-((4-(4,4,5,5-tetramethyl-1,3,2-dioxaborolan-2-yl)phenyl)amino)acetonitrile]: the activation at 5 µM under setting [1] turned out to be 9%. For `N#CC(Nc1ccc([B-](F)(F)F)cc1)c1ccc([B-](F)(F)F)cc1.[K+].[K+]` (centres unmarked) [Example 11], under setting [1], the “Percent increase in glucose uptake” value was 53%.

The values above are taken from patent publication US10047107B2, “Small molecule analogs of E4orf1” (BOARD OF SUPERVISORS OF LOUISIANA STATE UNIVERSITY AND …, priority 2014, dated 2018).
